Consider 30 molecules from PMC6273065, “Synthesis, Molecular Modelling and Biological Evaluation of Novel Heterodimeric, Multiple Ligands Targeting Cholinesterases and Amyloid Beta” (Molecules, 2016).

Data set [1] has as its target T1, EqBuChE (Equus caballus, UniProt P81908).
T1 construct: BuChE from equine serum (EqBuChE, Sigma–Aldrich); purchased Sigma–Aldrich; host or cells: equine serum
Description: biochemical. The protocol:
(§1) Ellman’s method was used to determine the activity of the synthesized compounds against AChE from electric eel (Electrophorus electricus, EeAChE) and BuChE from equine serum (EqBuChE).
(§2) All assays were performed in 0.1 M phosphate buffer pH 8.0. The tested compounds or water in a blank sample (25 µL) were incubated with the enzyme (20 µL) for 5 min at 25 °C in buffer (765 µL) prior to starting the reaction. Then, DTNB (20 µL) and ATC (20 µL) were added. […] Each condition was measured in triplicate. The percentages of enzyme inhibition were calculated from the equation 100%—Ai/A0 × 100%, where Ai is the absorbance of a sample with an inhibitor and A0 is the absorbance of a blank sample (100% activity of the enzyme). The IC50 values were calculated using GraphPad Prism 5. Data is expressed as mean ± SEM.

The target of data set [2] is T2, EeAChE (Electrophorus electricus, UniProt O42275).
T2 construct: purchased Sigma–Aldrich
As to the kind of experiment: biochemical. In kind it is biochemical. The conditions noted are these: for EeAChE inhibitory activity in words: Ellman's assay. The protocol: as §1, §2

Data set [3] concerns the target T3, Aβ1–42 (Homo sapiens, UniProt P05067).
T3 construct: Recombinant human HFIP-pretreated Aβ1–42 peptide; purchased Merck Millipore Lot number 2387442
As to the kind of experiment: Thioflavin-T fluorometric assay of self-induced Aβ1–42 aggregation. The class given is biochemical. The conditions noted are these: 10 µM compound, 1.5 µM Aβ1–42; mean ± SD; <10 = defined as not active; read-out: Aβ1–42 Aggreg. % of inhibition. From the text:
Mechanisms of Aβ aggregation remain unclear. Besides the self-induced assembly of Aβ, several other factors affect its aggregation, including metal ions, AChE [45], and oxidative stress. Therefore, we evaluated our compounds using the most versatile and commonly used Aβ1–42 aggregation Thioflavin T assay. Seven structurally diverse compounds were selected (one from each subseries) to test their ability to inhibit self-induced Aβ1–42 aggregation.
Thioflavin-T (ThT) fluorometric assay was performed to investigate the effect of the test compounds on the self-aggregation of Aβ1–42. […] Each sample was prepared in quadruplicate, and the DMSO was always at 3%. To quantify amyloid fibril formation, the ThT fluorescence was measured through the bottom of the plate every 180 s at an excitation wavelength of 440 nm and emission wavelength of 490 nm, with the medium continuously shaking between measurements using a 96-well microplate reader (Synergy™ H4, BioTek Instruments, Inc., Winooski, VT, USA). […] The fluorescence intensities at the plateau in the absence and presence of the test compounds were averaged, and the average fluorescence of the corresponding wells at t = 0 h was subtracted.

For data set [4] the following is noted: PAMPA-BBB; for Log Pe: 2 h at 37 °C, means of two replicates; for Prediction of BBB penetration: class from log Pe. The protocol: For anti-Alzheimer drug candidates, the ability to cross the blood–brain barrier and to enter the central nervous system (CNS) is crucial to achieve their pharmacological target and activity.
The BBB-PAMPA Explorer Test System was purchased from pION Inc. The in vitro permeability through BBB-1 lipid membrane was determined for 7 commercial drugs and the tested compounds. The compounds were dissolved in DMSO (10 mM stock solution) and diluted with Prisma HT buffer (5 µL/1 mL). Then, the […] 96-well microplate was filled with solution of the tested compounds in buffer (200 µL/well). The filter membrane in acceptor 96-well microplate was impregnated with BBB-1 lipid solution (5 µL/well) and the acceptor plate was filled with Brain Sink Buffer (200 µL/well). The acceptor plate was carefully placed on the donor plate to form a sandwich that was left undisturbed for 2 h at 37 °C. After incubation, the donor plate was carefully removed. The concentration of compounds in the acceptor, the donor, and the reference wells were measured using EnSpire Multimode Microplate Reader (PerkinElmer).

Each structure is given as a SMILES string.

The term IC50 denotes the midpoint of a concentration-inhibition curve. Higher therefore signals weaker potency in that assay. A word on the inhibition: it is the change of the read-out against control, counted positive when it falls.

T2 sequence (O42275 24-633): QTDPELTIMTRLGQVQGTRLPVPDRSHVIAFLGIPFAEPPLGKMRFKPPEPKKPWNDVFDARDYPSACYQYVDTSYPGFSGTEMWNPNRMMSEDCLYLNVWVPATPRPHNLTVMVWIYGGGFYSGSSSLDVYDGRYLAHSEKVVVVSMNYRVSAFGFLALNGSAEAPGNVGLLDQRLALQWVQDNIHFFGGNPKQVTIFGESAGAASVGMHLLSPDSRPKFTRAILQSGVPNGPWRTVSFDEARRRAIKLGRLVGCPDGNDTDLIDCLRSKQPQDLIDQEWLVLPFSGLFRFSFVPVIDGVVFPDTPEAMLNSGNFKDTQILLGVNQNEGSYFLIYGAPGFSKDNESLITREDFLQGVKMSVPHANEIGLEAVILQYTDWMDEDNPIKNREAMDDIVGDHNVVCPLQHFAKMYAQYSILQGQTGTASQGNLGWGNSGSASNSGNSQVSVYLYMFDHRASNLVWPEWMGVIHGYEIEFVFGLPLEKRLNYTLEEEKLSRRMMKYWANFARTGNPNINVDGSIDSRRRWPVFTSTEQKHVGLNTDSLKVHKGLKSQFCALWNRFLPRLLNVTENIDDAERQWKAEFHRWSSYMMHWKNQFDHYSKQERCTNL
T1 sequence (P81908 whole entry): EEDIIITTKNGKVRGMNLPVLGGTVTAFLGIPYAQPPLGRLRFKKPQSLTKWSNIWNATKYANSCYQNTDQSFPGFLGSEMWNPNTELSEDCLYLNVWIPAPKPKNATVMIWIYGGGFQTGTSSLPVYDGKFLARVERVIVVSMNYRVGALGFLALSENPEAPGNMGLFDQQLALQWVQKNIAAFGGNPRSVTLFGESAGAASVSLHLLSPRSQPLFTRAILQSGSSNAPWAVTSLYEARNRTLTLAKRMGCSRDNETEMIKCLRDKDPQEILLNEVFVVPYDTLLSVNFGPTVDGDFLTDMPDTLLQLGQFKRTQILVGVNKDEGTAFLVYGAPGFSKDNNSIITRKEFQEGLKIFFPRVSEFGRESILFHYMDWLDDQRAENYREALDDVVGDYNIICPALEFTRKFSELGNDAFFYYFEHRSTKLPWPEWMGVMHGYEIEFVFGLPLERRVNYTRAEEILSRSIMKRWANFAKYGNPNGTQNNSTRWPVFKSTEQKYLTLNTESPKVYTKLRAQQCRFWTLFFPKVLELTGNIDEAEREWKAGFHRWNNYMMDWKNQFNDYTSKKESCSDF
T3 sequence (P05067 672-713): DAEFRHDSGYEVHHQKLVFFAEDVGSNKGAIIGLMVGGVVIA

In the case of `O=C1c2ccccc2C(=O)N1CCCCCN1CCCC1` [Compound 1, 2-(5-(Pyrrolidin-1-yl)pentyl)isoindoline-1,3-dione], the IC50 was more than 50 µM in data set [1] and 0.781 ± 0.009 µM in data set [2].
With `O=C1c2ccccc2C(=O)N1CCCCCCN1CCCC1` [Compound 2, 2-(6-(Pyrrolidin-1-yl)hexyl)isoindoline-1,3-dione], the values for the IC50 in data set [1] and in data set [2] were more than 50 µM and 0.643 ± 0.006 µM, respectively.
The corresponding values for `O=C1c2ccccc2C(=O)N1CCCCCN1CCOCC1` [Compound 5, 2-(5-Morpholinopentyl)isoindoline-1,3-dione] are more than 50 µM and 18.1 ± 0.402 µM.
The like results for `O=C1c2ccccc2C(=O)N1CCCCCCN1CCOCC1` [Compound 6, 2-(6-Morpholinohexyl)isoindoline-1,3-dione] were, in that order, more than 50 µM and 17.2 ± 0.474 µM.
As for `O=C1c2ccccc2C(=O)N1CCCCCCCN1CCOCC1` [Compound 7, 2-(7-Morpholinoheptyl)isoindoline-1,3-dione], the IC50 in data set [1] was more than 50 µM; in data set [2], 4.11 ± 0.066 µM. For the same molecule, the inhibition at 10 µM in data set [3] is 17.1 ± 6.13%. Further, the “Log Pe” value in data set [4] was “–4.2”. Also, the “Prediction of BBB penetration” value in data set [4] is given as “CNS+ (CNS+, log Pe > −4.5, high permeability (i.e., can enter the CNS))”.
For the molecule `O=C1c2ccccc2C(=O)N1CCCCCCCCN1CCOCC1` [Compound 8, 2-(8-Morpholinooctyl)isoindoline-1,3-dione], the values for the IC50 in data set [1] and in data set [2] were more than 50 µM and 4.5 ± 0.064 µM, respectively.
Consider `O=C1c2ccccc2C(=O)N1CCCCN1CCc2ccccc2C1` [Compound 9, 2-(4-(3,4-dihydroisoquinolin-2(1H)-yl)butyl)isoindoline-1,3-dione], for which the IC50 in data set [1] stood at 12.82 ± 0.107 µM; in data set [2] it was 5.6 ± 0.087 µM.
On to `O=C1c2ccccc2C(=O)N1CCCCCN1CCc2ccccc2C1` [Compound 10, 2-(5-(3,4-dihydroisoquinolin-2(1H)-yl)pentyl)isoindoline-1,3-dione], for which the IC50 in data set [1] is 5.31 ± 0.16 µM; in data set [2] it was 1.266 ± 0.011 µM.
`O=C1c2ccccc2C(=O)N1CCCCCCCN1CCc2ccccc2C1` [Compound 12, 2-(7-(3,4-Dihydroisoquinolin-2(1H)-yl)heptyl)isoindoline-1,3-dione]: the IC50 in data set [1] came out at 1.17 ± 0.027 µM; in data set [2], 0.688 ± 0.017 µM.
With `O=C1c2ccccc2C(=O)N1CCCCCCCCN1CCc2ccccc2C1` [Compound 13, 2-(8-(3,4-Dihydroisoquinolin-2(1H)-yl)octyl)isoindoline-1,3-dione], the results for the IC50 in data set [1] and in data set [2] were 0.618 ± 0.009 µM and 0.76 ± 0.017 µM, respectively. For the same molecule, in data set [3], the inhibition at 10 µM is 35.8 ± 5.39%. Moreover, the “Log Pe” value in data set [4] is reported as “–4.2”. Moreover, the “Prediction of BBB penetration” value in data set [4] is “CNS+ (CNS+, log Pe > −4.5, high permeability (i.e., can enter the CNS))”.
In turn, `O=C1c2ccccc2C(=O)N1CCCCCCCCCCN1CCc2ccccc2C1` [Compound 14, 2-(10-(3,4-Dihydroisoquinolin-2(1H)-yl)decyl)isoindoline-1,3-dione] came in with a 50% inhibitory concentration (IC50) in data set [1] of 1.73 ± 0.038 µM. Moreover, in data set [2], the IC50 is more than 50 µM and the “EeAChE inhibitory activity in words” value is listed as “not active”.
The corresponding values for `O=C1c2ccccc2C(=O)N1CCCCCCCCCCCCN1CCc2ccccc2C1` [Compound 15, 2-(12-(3,4-Dihydroisoquinolin-2(1H)-yl)dodecyl)isoindoline-1,3-dione] are 3.66 ± 0.085 µM, more than 50 µM and “not active”.
Consider `CCN(CC)CCCCCN1CCc2ccccc2C1` [Compound 20, 5-(3,4-dihydroisoquinolin-2(1H)-yl)-N,N-diethylpentan-1-amine], for which the IC50 in data set [1] and in data set [2] was more than 50 µM throughout.
For the molecule `CCN(CC)CCCCCCN1CCc2ccccc2C1` [Compound 21, 6-(3,4-Dihydroisoquinolin-2(1H)-yl)-N,N-diethylhexan-1-amine], the concentration for half-maximal inhibition (IC50) in data set [1] and in data set [2] was more than 50 µM throughout.
As to `CCN(CC)CCCCCCCN1CCc2ccccc2C1` [Compound 22, 7-(3,4-Dihydroisoquinolin-2(1H)-yl)-N,N-diethylheptan-1-amine], the IC50 was found to be 37.1 ± 0.878 µM in data set [1] and 17.3 ± 0.401 µM in data set [2].
As for `CCN(CC)CCCCCCCCN1CCc2ccccc2C1` [Compound 23, 8-(3,4-Dihydroisoquinolin-2(1H)-yl)-N,N-diethyloctan-1-amine], the IC50 in data set [1] is 14 ± 0.343 µM; in data set [2], 4.72 ± 0.149 µM. For the same molecule, the inhibition at 10 µM in data set [3] was less than 10%.
As for `CCN(CC)CCCn1ccc2ccccc21` [Compound 30, N,N-diethyl-3-(1H-indol-1-yl)propan-1-amine], the IC50 in data set [1] and in data set [2] was more than 50 µM throughout.
Take `CCN(CC)CCCCn1ccc2ccccc21` [Compound 31, N,N-diethyl-4-(1H-indol-1-yl)butan-1-amine]: the IC50 in data set [1] is 26 ± 0.813 µM; in data set [2], more than 50 µM.
`CCN(CC)CCCCCn1ccc2ccccc21` [Compound 32, N,N-Diethyl-5-(1H-indol-1-yl)pentan-1-amine]: the IC50 in data set [1] was 22.6 ± 0.602 µM; in data set [2], more than 50 µM.
As to `CCN(CC)CCCCCCn1ccc2ccccc21` [Compound 33, N,N-Diethyl-6-(1H-indol-1-yl)hexan-1-amine], the IC50 in data set [1] is 28.7 ± 0.723 µM; in data set [2], more than 50 µM.
In the case of `CCN(CC)CCCCCCCn1ccc2ccccc21` [Compound 34, N,N-Diethyl-7-(1H-indol-1-yl)heptan-1-amine], the figures for the IC50 in data set [1] and in data set [2] were 1.47 ± 0.593 µM and 22.2 ± 0.424 µM, respectively.
With `CCN(CC)CCCCCCCCn1ccc2ccccc21` [Compound 35, N,N-Diethyl-8-(1H-indol-1-yl)octan-1-amine], the IC50 came to 3.47 ± 0.1 µM in data set [1] and 9.56 ± 0.289 µM in data set [2]. The inhibition at 10 µM in data set [3] was determined as 16.6 ± 2.74%.
For the molecule `O=C1c2ccccc2S(=O)(=O)N1CCCCCNCc1ccccc1F` [Compound 39, 2-(5-(2-fluorobenzylamino)pentyl)benzo[d]isothiazol-3(2H)-one 1,1-dioxide], in data set [1], the IC50 is more than 50 µM. In addition, inhibition in data set [2] was half-maximal at 0.15 ± 0.003 µM (IC50). In addition, the inhibition at 10 µM in data set [3] worked out at 12.3 ± 2.63%. Besides, in data set [4], the “Log Pe” value is “–4.0” and the “Prediction of BBB penetration” value is “CNS+ (CNS+, log Pe > −4.5, high permeability (i.e., can enter the CNS))”.
Turning to `O=C1c2ccccc2S(=O)(=O)N1CCCCCCNCc1ccccc1F` [Compound 40, 2-(6-(2-fluorobenzylamino)hexyl)benzo[d]isothiazol-3(2H)-one 1,1-dioxide], the IC50 is more than 50 µM in data set [1] and 1.14 ± 0.015 µM in data set [2].
As for `O=C1c2ccccc2S(=O)(=O)N1CCCCCCCNCc1ccccc1F` [Compound 41, 2-(7-(2-fluorobenzylamino)heptyl)benzo[d]isothiazol-3(2H)-one 1,1-dioxide], the IC50 in data set [1] worked out at 4.97 ± 0.127 µM; in data set [2], 0.735 ± 0.009 µM.
Consider `O=C1c2ccccc2S(=O)(=O)N1CCCCCCNCc1cccc(Cl)c1` [Compound 43, 2-(6-(3-chlorobenzylamino)hexyl)benzo[d]isothiazol-3(2H)-one 1,1-dioxide], for which the concentration for half-maximal inhibition (IC50) in data set [1] is 6.54 ± 0.163 µM; in data set [2], 0.596 ± 0.006 µM.
The like results for `O=C1c2ccccc2S(=O)(=O)N1CCCCCCCNCc1cccc(Cl)c1` [Compound 44, 2-(7-(3-chlorobenzylamino)heptyl)benzo[d]isothiazol-3(2H)-one 1,1-dioxide] were, in that order, 2.46 ± 0.032 µM and 0.923 ± 0.012 µM.
`CC(=O)[C@H]1CC[C@H]2[C@@H]3CCC4=CC(=O)CC[C@]4(C)[C@H]3CC[C@]12C` [Progesterone, reference compound]: the “Prediction of BBB penetration” value in data set [4] is on record as “CNS+ (CNS+, log Pe > −4.5, high permeability (i.e., can enter the CNS))”.
As to `CC(C)NCC(O)COc1cccc2ccccc12` (stereo not shown) [Propranolol, reference compound], the “Prediction of BBB penetration” value in data set [4] was “CNS+ (CNS+, log Pe > −4.5, high permeability (i.e., can enter the CNS))”.
Regarding `Cn1c(=O)c2[nH]cnc2n(C)c1=O` [Theophylline, reference compound], the “Log Pe” value in data set [4] was “–6.3”.
